The numbers were not newly measured in patent publication US20140357595A1, “METHODS OF PREVENTING AND TREATING RECURRENCE OF A HEPATITIS C VIRUS INFECTION IN A SUBJECT AFTER THE SUBJECT HAS RECEIVED A LIVER TRANSPLANT” (priority 2013, published 2014), which cites them from elsewhere.

The target of data set [1] is T1, HCV NS5B RNA dependent RNA polymerase (Hepatitis C virus genotype 1a, UniProt P27958).
T1 construct: the HCV NS5B RNA dependent RNA polymerase

The conditions of data set [2]: clinical trials.

T1 sequence (P27958 2421-3011): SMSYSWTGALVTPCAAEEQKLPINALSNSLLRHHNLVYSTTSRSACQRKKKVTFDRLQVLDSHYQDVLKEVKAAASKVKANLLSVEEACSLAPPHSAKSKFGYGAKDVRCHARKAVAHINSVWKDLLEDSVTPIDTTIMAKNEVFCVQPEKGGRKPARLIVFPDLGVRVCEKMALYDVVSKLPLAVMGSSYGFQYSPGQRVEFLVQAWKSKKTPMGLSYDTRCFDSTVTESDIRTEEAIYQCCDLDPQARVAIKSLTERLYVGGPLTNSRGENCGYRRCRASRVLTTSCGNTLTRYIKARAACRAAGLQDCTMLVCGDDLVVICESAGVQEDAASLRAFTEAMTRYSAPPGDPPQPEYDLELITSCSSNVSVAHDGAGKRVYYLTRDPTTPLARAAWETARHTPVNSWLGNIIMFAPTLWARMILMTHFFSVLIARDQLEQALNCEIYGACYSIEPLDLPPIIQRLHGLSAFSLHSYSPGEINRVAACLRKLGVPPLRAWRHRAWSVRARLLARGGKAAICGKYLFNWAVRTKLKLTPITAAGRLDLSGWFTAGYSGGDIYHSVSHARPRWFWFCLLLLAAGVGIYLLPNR

Regarding `C[C@@]1(F)[C@H](O)[C@@H](COP(=O)(O)OP(=O)(O)OP(=O)(O)O)O[C@H]1n1ccc(=O)[nH]c1=O` [5′-triphosphate metabolite of Compound 1], the “inhibition of HCV replication mediated by the HCV NS5B RNA dependent RNA polymerase” value in data set [1] is “potent and selective inhibitor”.

On to `CC(C)OC(=O)[C@H](C)N[P@](=O)(OC[C@H]1O[C@@H](n2ccc(=O)[nH]c2=O)[C@](C)(F)[C@@H]1O)Oc1ccccc1` [Compound 1, (S)-isopropyl 2-(((S)-(((2R,3R,4R,5R)-5-(2,4-dioxo-3,4-dihydropyrimidin-1(2H)-yl)-4-fluoro-3-hydroxy-4-methyltetrahydrofuran-2-yl)methoxy)(phenoxy)phosphoryl)amino)propanoate], for which, in data set [2], the tolerability entry is “well-tolerated”.
